Experimental data from DBAASP.
Values after ≈ are worked out from the molar mass of the structure shown. Values belong to the compound of their own block, whether it stands above or below them.

Assays:
Assay in all cases: ≥ marks a high value that may be exact or a test limit, other limits are often not marked, values filed in µg/mL are converted to µM
[1] = test system: Enterococcus faecium ATCC 700221
[2] = test system: Staphylococcus epidermidis ATCC 51625
[3] = test system: Pseudomonas aeruginosa ATCC 19660
[4] = test system: Acinetobacter baumannii ATCC 17978D-5
[5] = test system: Klebsiella aerogenes ATCC 13048
[6] = test system: Staphylococcus aureus ATCC 33591
[7] = test system: Pseudomonas aeruginosa ATCC 27853
[8] = test system: Streptococcus pneumoniae ATCC 49619
[9] = test system: Candida albicans ATCC 5314
[10] = test system: Staphylococcus aureus ATCC 25923
Staphylococcus aureus MR = test system: Staphylococcus aureus MR
Escherichia coli MG1655 = test system: Escherichia coli MG1655
[11] = test system: Pseudomonas aeruginosa PAO1
[12] = test system: Staphylococcus aureus NCTC 8325
[13] = test system: Pseudomonas aeruginosa PA7
[14] = test system: Pseudomonas aeruginosa CICC 21625
[15] = test system: Pseudomonas aeruginosa 25349
[16] = test system: Pseudomonas aeruginosa CICC 10419
[17] = test system: Staphylococcus aureus ATCC 29213
[18] = test system: Pseudomonas aeruginosa CICC 11431
[19] = test system: Pseudomonas aeruginosa CICC 21630
[20] = test system: Escherichia coli ATCC 25922
[21] = test system: Pseudomonas aeruginosa 21328
[22] = test system: Pseudomonas aeruginosa CICC 11411
[23] = test system: Pseudomonas aeruginosa CICC 11421
[24] = test system: Salmonella enterica subsp. arizonae ATCC 13314
[25] = test system: Microsporum canis MW768151
Staphylococcus simulans = test system: Staphylococcus simulans
[26] = test system: Staphylococcus cohnii MW767053
Aspergillus niger = test system: Aspergillus niger
[27] = test system: Alcaligenes faecalis ATCC 8750
Proteus mirabilis = test system: Proteus mirabilis
[28] = test system: Serratia marcescens ATCC 4112
Microsporum canis = test system: Microsporum canis
[29] = test system: Staphylococcus pseudintermedius MW767056
[30] = test system: Staphylococcus pseudintermedius
[31] = test system: Bacillus subtilis ATCC 6633
[32] = test system: Staphylococcus haemolyticus
Staphylococcus sciuri = test system: Staphylococcus sciuri
Escherichia coli D31 = test system: Escherichia coli D31
Beauveria bassiana = test system: Beauveria bassiana
Escherichia coli SBS 363 = test system: Escherichia coli SBS 363
[33] = test system: Enterobacter cloacae beta-12
[34] = test system: Saccharomyces cerevisiae PM340
Candida albicans MDM8 = test system: Candida albicans MDM8
Micrococcus luteus A270 = test system: Micrococcus luteus A270
[35] = test system: Salmonella enterica subsp. enterica serovar Typhimurium ATCC 14028
[36] = test system: Trichophyton mentagrophytes
[37] = test system: Candida tropicalis IOC 4560
[38] = test system: Bacillus megaterium ATCC 10778

Compound: C[C@H](NC(=O)[C@H](Cc1ccccc1)NC(=O)[C@H](C)NC(=O)[C@@H](N)Cc1ccccc1)C(=O)N[C@@H](Cc1ccccc1)C(=O)N[C@@H](C)C(=O)N[C@@H](Cc1ccccc1)C(=O)N[C@@H](CCCCN)C(=O)N[C@@H](CCCCN)C(=O)N[C@@H](C)C(=O)N[C@@H](Cc1ccccc1)C(=O)N[C@@H](CCCCN)C(=O)N[C@@H](CCCCN)C(=O)N[C@@H](Cc1ccccc1)C(=O)N[C@@H](CCCCN)C(=O)N[C@@H](CCCCN)C(=O)N[C@@H](C)C(=O)N[C@@H](Cc1ccccc1)C(=O)N[C@@H](CCCCN)C(=O)N[C@@H](CCCCN)C(=O)N[C@@H](C)C(=O)N[C@@H](Cc1ccccc1)C(=O)O [FAFAFAFKKAFKKFKKAFKKAF]
MIC [1]: 3.02 µM (≈ 8 µg/mL)
MIC [2]: 1.51 µM (≈ 4 µg/mL)
MIC [3]: 24.2 µM (≈ 64 µg/mL)
MIC [4]: 0.755 µM (≈ 2 µg/mL)
MIC [5]: 24.2 µM (≈ 64 µg/mL)
MIC [6]: 6.04 µM (≈ 16 µg/mL)
MIC [7]: > 24.2 µM
MIC [8]: 24.2 µM (≈ 64 µg/mL)

Compound: CC[C@H](C)[C@H](N)C(=O)N[C@@H](CCCCN)C(=O)N[C@H](C(=O)N1CCC[C@H]1C(=O)N[C@@H](C)C(=O)N[C@H](C(=O)N[C@H](C(=O)N[C@@H](CCCCN)C(=O)N[C@@H](CC(=O)O)C(=O)N[C@H](C(=O)N[C@@H](CCC(N)=O)C(=O)N[C@@H](CCCCN)C(=O)N[C@@H](CCCCN)C(=O)N[C@H](C(=O)N[C@@H](C)C(=O)N[C@@H](CCCCN)C(=O)NCC(=O)N[C@H](C(=O)N[C@H](C(=O)N[C@@H](CO)C(=O)N[C@H](C(=O)N[C@H](C(=O)N[C@@H](C)C(=O)N[C@@H](CC(=O)O)C(=O)N[C@@H](C)C(=O)N[C@@H](CC(C)C)C(=O)N[C@@H](CO)C(=O)N[C@@H](CCCCN)C(=O)N[C@@H](CO)C(=O)O)C(C)C)[C@@H](C)O)[C@@H](C)CC)C(C)C)C(C)C)[C@@H](C)O)C(C)C)[C@@H](C)CC)C(C)C [IKVPAIVKDTQKKVAKGVISTVADALSKS]
MIC (Escherichia coli MG1655): ≥ 512 µM
MIC [11]: > 512 µM
MIC [12]: ≥ 512 µM
MIC [13]: ≥ 512 µM

Compound: CC(C)[C@H](N)C(=O)N[C@@H](C)C(=O)N[C@@H](CCC(=O)O)C(=O)N[C@@H](C)C(=O)N[C@@H](CCCN=C(N)N)C(=O)N[C@@H](CCC(N)=O)C(=O)NCC(=O)N[C@@H](CO)C(=O)N[C@@H](Cc1ccccc1)C(=O)N[C@@H](CO)C(=O)N[C@@H](Cc1ccc(O)cc1)C(=O)O [VAEARQGSFSY]
MIC [24]: 25 µM (≈ 30.3 µg/mL)
MIC [25]: 0.412 µM (≈ 0.5 µg/mL)
MIC (Staphylococcus simulans): ≥ 105 µM
MIC [26]: ≥ 211 µM
MIC (Aspergillus niger): 25 µM (≈ 30.3 µg/mL)
MIC [27]: 12.5 µM (≈ 15.2 µg/mL)
MIC (Proteus mirabilis): ≥ 211 µM
MIC [28]: 25 µM (≈ 30.3 µg/mL)
MIC (Microsporum canis): 0.824 µM (≈ 1 µg/mL)
MIC [17]: 6.24 µM (≈ 7.58 µg/mL)
MIC [29]: ≥ 105 µM
MIC [30]: ≥ 105 µM
MIC [31]: 25 µM (≈ 30.3 µg/mL)
MIC [32]: ≥ 211 µM
MIC (Staphylococcus sciuri): ≥ 211 µM
MIC (Escherichia coli D31): 12.5 µM (≈ 15.2 µg/mL)
MIC (Beauveria bassiana): 25 µM (≈ 30.3 µg/mL)
MIC (Escherichia coli SBS 363): 25 µM (≈ 30.3 µg/mL)
MIC [33]: 25 µM (≈ 30.3 µg/mL)
MIC [34]: 25 µM (≈ 30.3 µg/mL)
MIC (Candida albicans MDM8): 25 µM (≈ 30.3 µg/mL)
MIC (Micrococcus luteus A270): 6.24 µM (≈ 7.58 µg/mL)
MIC [35]: 12.5 µM (≈ 15.2 µg/mL)
MIC [7]: 12.5 µM (≈ 15.2 µg/mL)
MIC [36]: 0.412 µM (≈ 0.5 µg/mL)
MIC [37]: 25 µM (≈ 30.3 µg/mL)
MIC [38]: 12.5 µM (≈ 15.2 µg/mL)

Now from value to compound:

MIC [9]: 26.4 µM (≈ 64 µg/mL)
MIC [10]: 26.4 µM (≈ 64 µg/mL)
MIC (Staphylococcus aureus MR): 26.4 µM (≈ 64 µg/mL)
Compound: CC[C@H](C)[C@H](NC(=O)[C@@H](NC(=O)[C@H](CCCN=C(N)N)NC(=O)[C@H](Cc1ccccc1)NC(=O)[C@@H](N)Cc1ccc(O)cc1)[C@@H](C)O)C(=O)N[C@@H](CCCN=C(N)N)C(=O)N[C@@H](CCCN=C(N)N)C(=O)N[C@@H](Cc1ccccc1)C(=O)N[C@@H](Cc1ccccc1)C(=O)N[C@@H](CCCCN)C(=O)N[C@@H](CCCCN)C(=O)N[C@@H](CC(C)C)C(=O)N[C@@H](Cc1ccccc1)C(=O)N[C@@H](CCCCN)C(=O)N[C@H](C(=O)N[C@@H](CC(C)C)C(=O)N[C@@H](CCCCN)C(=O)N[C@@H](CCCCN)C(N)=O)[C@@H](C)O [YFRTIRRFFKKLFKTLKK]

MIC [14]: ≥ 102 µM
MIC [15]: 12.7 µM (≈ 32 µg/mL)
MIC [16]: ≥ 102 µM
MIC [17]: 6.37 µM (≈ 16 µg/mL)
MIC [18]: 3.19 µM (≈ 8 µg/mL)
MIC [19]: 6.37 µM (≈ 16 µg/mL)
MIC [20]: 12.7 µM (≈ 32 µg/mL)
MIC [21]: ≥ 102 µM
MIC [7]: 1.59 µM (≈ 4 µg/mL)
MIC [22]: ≥ 102 µM
MIC [23]: ≥ 102 µM
Compound: NC(=O)[C@H](Cc1c[nH]c2ccccc12)NC(=O)[C@H](CCCN=C(N)N)NC(=O)[C@H](CCCN=C(N)N)NC(=O)[C@H](Cc1c[nH]c2ccccc12)NC(=O)[C@H](CCCN=C(N)N)NC(=O)[C@H](CCCN=C(N)N)NC(=O)[C@H](CCCN=C(N)N)NC(=O)[C@H](Cc1c[nH]c2ccccc12)NC(=O)[C@H](CCCN=C(N)N)NC(=O)[C@H](CCCN=C(N)N)NC(=O)[C@H](CCCN=C(N)N)NC(=O)[C@H](Cc1c[nH]c2ccccc12)NC(=O)[C@H](CCCN=C(N)N)NC(=O)[C@H](CCCN=C(N)N)NC(=O)[C@@H](N)Cc1c[nH]c2ccccc12 [WRRWRRRWRRRWRRW]
